Measured values as given in patent publication US20250296939A1, “BENZOTHIOPHENE COMPOUND” (Kyoto Pharmaceutical Industries, Ltd., priority 2022, published 2025).

Target: GST-fused human Keap1 (amino acid residues: 325-642) protein (Homo sapiens (Human), UniProt Q14145)
Assay: FP assay (in vitro): inhibition of binding between Nrf2 and Keap1 by fluorescence polarization
Details: 20 nM GST-fused human Keap1, 10 nM FITC-labeled Nrf2 peptide, 2 hr at room temperature
Description: Experimental Example 1: FP Assay (In Vitro)
The inhibitory activity of test compounds on the binding between Nrf2 and Keap1 was determined by fluorescence polarization. A solution of 50 mM Tris-HCl pH.8.0 (NACALAI, REF: 06938-15), and 5 mM DTT (SIGMA-ALDRICH, REF: 646563-10X.5 mL) was used as a buffer solution. 8 μL of a buffer solution containing 40 nM GST-fused human Keap1 (amino acid residues: 325-642) protein (Protein tech, REF: Ag0779) was taken in a black 384-well plate (final concentration 20 nM), and 4 μL of the test compound solution prepared to each concentration in buffer solution was added thereto. A well containing a portion of the buffer solution without Keap1 was placed as a negative control. A well with no compound was used as a positive control. 40 nM of FITC-labeled Nrf2 peptide (FITC-X-LQLDEETGEFLPIQ (X=ε-Acp), Peptide Institute Inc.) was added thereto (10 nM final concentration). The wells were incubated at room temperature for 2 hr, and then fluorescence polarization was measured with a plate reader SPECTRAMAX Paradigm (Molecular devices) at excitation wavelength of 485 nm and fluorescence wavelength of 535 nm. The fluorescence polarization of the negative control was set to 100% inhibition and that of the positive control to 0% inhibition, and the inhibitory rate upon addition of the test compound was calculated using the following formula.

Sequence of GST-fused human Keap1 (amino acid residues: 325-642) protein (Q14145 325-624 limits assumed): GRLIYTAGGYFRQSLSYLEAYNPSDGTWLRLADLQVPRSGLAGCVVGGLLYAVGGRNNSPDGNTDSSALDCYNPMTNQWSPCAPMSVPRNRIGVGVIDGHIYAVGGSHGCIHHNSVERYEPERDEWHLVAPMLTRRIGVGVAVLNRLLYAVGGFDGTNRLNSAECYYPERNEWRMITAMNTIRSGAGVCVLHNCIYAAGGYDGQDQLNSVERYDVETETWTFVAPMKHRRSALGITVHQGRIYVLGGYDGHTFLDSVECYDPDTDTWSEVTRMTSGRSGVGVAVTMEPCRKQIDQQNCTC

Compound	IC50
CC[C@@H]1CN(Cc2cc([C@@H](CC(=O)O)c3ccc4c(nnn4CC(F)(F)F)c3C)cc3ccsc23)Cc2nc(O)ccc2O1 (single isomer, unassigned) [Example 28]	10 to 30 nM
Cc1c(C(CC(=O)O)c2cc(CN3Cc4nc(O)ccc4OC4(CC4)[C@H]3C)c3sccc3c2)ccc2c1nnn2C (single isomer, unassigned) [Example 59, (3S*)-3-(1,4-Dimethyl-1H-benzotriazol-5-yl)-3-(7-{[(3′R)-7′-hydroxy-3′-methyl-3′H-spiro[cyclopropane-1,2′-pyrido[2,3-f][1,4]oxazepin]-4′ (5′H)-yl]methyl}-1-benzothiophen-5-yl)propanoic acid]	300 to 3000 nM
Cc1c(C(CC(=O)O)c2cc(CN3Cc4nc(O)ccc4OC4(CC4)[C@@H]3C)c3sccc3c2)ccc2c1nnn2C (single isomer, unassigned) [Example 61, (3S*)-3-(1,4-Dimethyl-1H-benzotriazol-5-yl)-3-(7-{[(3′S)-7′-hydroxy-3′-methyl-3′H-spiro[cyclopropane-1,2′-pyrido[2,3-f][1,4]oxazepin]-4′ (5′H)-yl]methyl}-1-benzothiophen-5-yl)propanoic acid]	30 to 300 nM
CC[C@@H]1CN(Cc2cc(C(CC(=O)O)c3ccc4c(nnn4C)c3C)cc3ccsc23)Cc2ncc(O)cc2O1 (single isomer, unassigned) [Example 66, (3S*)-3-(1,4-Dimethyl-1H-benzotriazol-5-yl)-3-(7-{[(2R)-2-ethyl-8-hydroxy-2,3-dihydropyrido[2,3-f][1,4]oxazepin-4(5H)-yl]methyl}-1-benzothiophen-5-yl)propanoic acid]	30 to 300 nM
Cc1c([C@H](CC(=O)O)c2cc(CN3Cc4nc(O)ccc4CC(C4CC4)C3)c3sccc3c2)ccc2c1nnn2C (single isomer, unassigned) [Example 89, (3R)-3-(7-{[(6R*)-6-Cyclopropyl-2-hydroxy-5,6,7,9-tetrahydro-8H-pyrido[2,3-c]azepin-8-yl]methyl}-1-benzothiophen-5-yl)-3-(1,4-dimethyl-1H-benzotriazol-5-yl)propanoic acid]	30 to 300 nM
Cc1c([C@H](CC(=O)O)c2cc(CN3Cc4nc(O)ccc4CC(C4CC4)C3)c3sccc3c2)cnc2c1nnn2C (single isomer, unassigned) [Example 91, (3R)-3-(7-{[(6S*)-6-Cyclopropyl-2-hydroxy-5,6,7,9-tetrahydro-8H-pyrido[2,3-c]azepin-8-yl]methyl}-1-benzothiophen-5-yl)-3-(3,7-dimethyl-3H-[1,2,3]triazolo[4,5-b]pyridin-6-yl)propanoic acid]	30 to 300 nM
CC[C@@H]1CN(Cc2cc([C@H](c3ccc4c(nnn4C)c3C)C(C)(C)C(=O)O)cc3ccsc23)Cc2nc(O)ccc2O1 [Example 12, (3R)-3-(1,4-Dimethyl-1H-benzotriazol-5-yl)-3-(7-{[(2R)-2-ethyl-7-hydroxy-2,3-dihydropyrido[2,3-f][1,4]oxazepin-4(5H)-yl]methyl}-1-benzothiophen-5-yl)-2,2-dimethylpropanoic acid]	300 to 3000 nM
